Converted amounts (≈) assume the structure as drawn. Read-outs that look alike come from different tables or passages of the source.
Tests used:
[1] = Thermogravimetric analysis (thermal stability); type: physicochemical; details: TGA, heating rate 20° C./min
Procedure: The thermogravimetric analysis was also conducted on a Mettler 850, TA 2920. Samples were placed into a ceramic or aluminum sample pan. A heating rate of 20° C./min was employed over a temperature range from 20° C. to 600° C.

[2] = Solubility of saturated solutions determined by HPLC; type: physicochemical
Procedure: Saturated solutions of {4,6-bis(dimethylamino)-2-(4-(4-(trifluoromethyl)-benzamido)benzyl)pyrimidin-5-yl}acetic acid of Formula I in the solvents listed in Table 1 were prepared from the acid predominantly in Form I, at both 25 and 50° C.

DP1 = target: T1, DP1 (Homo sapiens, UniProt Q13258); assay: Competitive radioligand (3H-PGD2) binding assay, DP1-transfected cells; details: competition with 1 nM 3H-PGD2, DP1-transfected cells, FIG. 11
T1 sequence (Q13258 1-359): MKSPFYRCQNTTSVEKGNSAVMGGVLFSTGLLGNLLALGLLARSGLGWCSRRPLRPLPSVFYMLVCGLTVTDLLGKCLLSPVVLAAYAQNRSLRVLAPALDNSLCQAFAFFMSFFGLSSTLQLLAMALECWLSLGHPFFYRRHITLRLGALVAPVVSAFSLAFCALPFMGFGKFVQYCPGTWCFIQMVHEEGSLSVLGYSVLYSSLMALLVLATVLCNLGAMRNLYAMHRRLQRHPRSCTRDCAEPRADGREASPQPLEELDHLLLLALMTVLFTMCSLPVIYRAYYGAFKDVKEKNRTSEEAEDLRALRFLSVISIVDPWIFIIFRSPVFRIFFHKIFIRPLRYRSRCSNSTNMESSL
Procedure: The binding affinity and selectivity of the amine salts of 4,6-bis(dimethylamino)-2-(4-(4-(trifluoromethyl)benzamido)benzyl)pyrimidin-5-yl}acetic acid provided herein were evaluated using a competitive radioligand binding assay with stably-transfected cell lines expressing CRTH2 or DP1.
Prostaglandin D2 and 13,14-dihydro-15-keto PGD2 were obtained from Cayman Chemical (Ann Arbor, Mich.). Radiolabelled PGD2 (5,6,8,9,12,14,15-^3H(N)) with a specific activity of 160 Ci/mmol was obtained from PerkinElmer (Boston, Mass.). Cell culture medium RPMI 1640, HEPES buffer, phosphate buffered saline (PBS), L-glutamine, and penicillin-streptomycin solution were obtained from Mediatech Inc. (Herndon, Va.). Fetal calf serum (FCS) was obtained from Cambrex (Walkersville, Md.). Puromycin was obtained from Invitrogen (San Diego, Calif.). Poly(ethyleneimine) (PEI) was obtained from Acros Organics (Morris Plains, N.J.). […]
Radioligand binding analyses were performed according to the methods of Sugimoto et al. (J. Pharm. Exp. Therap. 2003, 305, 347-352; Eur. J. Pharmacol. 2005, 524, 30-37). […] Scintillant (50 μL; Microscint™ 20, Perkin Elmer, Boston, Mass.) was added to each well and the radioactivity was counted on a TopCount (Packard Bioscience, Meriden, Conn.). […]

CRTH2 = target: T2, CRTH2 (Homo sapiens, UniProt Q9Y5Y4); assay: Competitive radioligand (3H-PGD2) binding assay, CRTH2-transfected cells; details: competition with 1 nM 3H-PGD2, CRTH2-transfected cells, FIG. 10
T2 construct: expressed in transfected cells
T2 sequence (Q9Y5Y4 1-395): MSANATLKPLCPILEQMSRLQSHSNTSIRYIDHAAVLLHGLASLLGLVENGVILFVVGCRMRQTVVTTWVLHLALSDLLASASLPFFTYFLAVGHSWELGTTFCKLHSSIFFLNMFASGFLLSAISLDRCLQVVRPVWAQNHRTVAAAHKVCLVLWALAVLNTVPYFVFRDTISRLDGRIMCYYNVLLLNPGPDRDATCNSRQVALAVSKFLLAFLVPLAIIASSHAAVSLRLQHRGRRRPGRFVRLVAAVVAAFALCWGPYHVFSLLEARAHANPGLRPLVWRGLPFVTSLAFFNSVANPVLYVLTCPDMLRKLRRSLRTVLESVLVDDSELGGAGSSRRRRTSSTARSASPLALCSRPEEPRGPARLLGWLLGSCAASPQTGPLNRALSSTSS
Excerpt: Prostaglandin D2 and 13,14-dihydro-15-keto PGD2 were obtained from Cayman Chemical (Ann Arbor, Mich.). Radiolabelled PGD2 (5,6,8,9,12,14,15-^3H(N)) with a specific activity of 160 Ci/mmol was obtained from PerkinElmer (Boston, Mass.). Cell culture medium RPMI 1640, HEPES buffer, phosphate buffered saline (PBS), L-glutamine, and penicillin-streptomycin solution were obtained from Mediatech Inc. (Herndon, Va.). Fetal calf serum (FCS) was obtained from Cambrex (Walkersville, Md.). Puromycin was obtained from Invitrogen (San Diego, Calif.). […]
The surface expression of CRTH2 on the transfected cell lines was monitored periodically during culture and prior to each competitive radioligand binding assay. […] The cells were then washed in 2 mL of FACS buffer (PBS containing 1% BSA (Fraction V) and 0.1% sodium azide. The cells were subsequently incubated on ice with a FITC-conjugated anti-rat antibody (goat anti-rat Ig-FITC). After washed with cold FACS buffer, the cells were analyzed using a FACScan II analyzer and CellQuest software, both from Becton Dickinson (Mountain View, Calif.). […]

In the case of `CN(C)c1nc(Cc2ccc(NC(=O)c3ccc(C(F)(F)F)cc3)cc2)nc(N(C)C)c1CC(=O)O` [Form I, {4,6-bis(dimethylamino)-2-(4-(4-(trifluoromethyl)benzamido)benzyl)pyrimidin-5-yl}acetic acid], the “decomposition temperature (no significant weight loss until decomposition)” value [1] is reported as “around 200 °C” and the solubility ([2]; water, at room temperature, read-out: aqueous solubility) is reported as about 3 µg/mL (≈ 5.98 µM).
With `CN(C)c1nc(Cc2ccc(NC(=O)c3ccc(C(F)(F)F)cc3)cc2)nc(N(C)C)c1CC(=O)O` [Formula I, {4,6-bis(dimethylamino)-2-(4-(4-(trifluoro-methyl)benzamido)benzyl)pyrimidin-5-yl}acetic acid] the “binding selectivity for CRTH2 versus DP1” value (DP1) was “binds selectively to CRTH2”, the “binding affinity for CRTH2” value (CRTH2) was “high affinity” and the solubility ([2]; organic solvent or mixture, thermodynamic from solid, 1,4-Dioxane, 25° C., read-out: Solubility) was 3370 µg/mL. For the same molecule, the solubility ([2]; organic solvent or mixture, thermodynamic from solid, 1,4-Dioxane, 50° C., read-out: Solubility) was 9830 µg/mL, the solubility ([2]; organic solvent or mixture, thermodynamic from solid, 1-Propanol, 25° C., read-out: Solubility) was 790 µg/mL and the solubility ([2]; organic solvent or mixture, thermodynamic from solid, 1-Propanol, 50° C., read-out: Solubility) was 2410 µg/mL. It also gave a solubility ([2]; organic solvent or mixture, thermodynamic from solid, 2-Methoxyethanol, 25° C., read-out: Solubility) of 5350 µg/mL, a solubility ([2]; organic solvent or mixture, thermodynamic from solid, 2-Methoxyethanol, 50° C., read-out: Solubility) of 8550 µg/mL and a solubility ([2]; organic solvent or mixture, thermodynamic from solid, Acetone, 25° C., read-out: Solubility) of 2620 µg/mL. For the same molecule, the solubility ([2]; organic solvent or mixture, thermodynamic from solid, Acetone, 50° C., read-out: Solubility) was 3340 µg/mL, the solubility ([2]; organic solvent or mixture, thermodynamic from solid, DMSO, 25° C., read-out: Solubility) was over 50000 µg/mL and the solubility ([2]; organic solvent or mixture, thermodynamic from solid, DMSO, 50° C., read-out: Solubility) was over 50000 µg/mL. It also gave a solubility ([2]; organic solvent or mixture, thermodynamic from solid, Ethanol, 25° C., read-out: Solubility) of 1090 µg/mL, a solubility ([2]; organic solvent or mixture, thermodynamic from solid, Ethanol, 50° C., read-out: Solubility) of 2250 µg/mL and a solubility ([2]; organic solvent or mixture, thermodynamic from solid, Ethyl acetate, 25° C., read-out: Solubility) of 530 µg/mL. For the same molecule, the solubility ([2]; organic solvent or mixture, thermodynamic from solid, Ethyl acetate, 50° C., read-out: Solubility) was 1270 µg/mL, the solubility ([2]; organic solvent or mixture, thermodynamic from solid, Ethyl formate, 25° C., read-out: Solubility) was 390 µg/mL and the solubility ([2]; organic solvent or mixture, thermodynamic from solid, Ethyl formate, 50° C., read-out: Solubility) was 1510 µg/mL. It also gave a solubility ([2]; organic solvent or mixture, thermodynamic from solid, Isobutyl acetate, 25° C., read-out: Solubility) of 200 µg/mL, a solubility ([2]; organic solvent or mixture, thermodynamic from solid, Isobutyl acetate, 50° C., read-out: Solubility) of 830 µg/mL and a solubility ([2]; organic solvent or mixture, thermodynamic from solid, Isopropanol, 25° C., read-out: Solubility) of 770 µg/mL. The solubility ([2]; organic solvent or mixture, thermodynamic from solid, Isopropanol, 50° C., read-out: Solubility) was 1960 µg/mL, the solubility ([2]; organic solvent or mixture, thermodynamic from solid, Isopropyl acetate, 25° C., read-out: Solubility) was 270 µg/mL and the solubility ([2]; organic solvent or mixture, thermodynamic from solid, Isopropyl acetate, 50° C., read-out: Solubility) was 780 µg/mL. The solubility ([2]; organic solvent or mixture, thermodynamic from solid, MIBK, 25° C., read-out: Solubility) was 540 µg/mL, the solubility ([2]; organic solvent or mixture, thermodynamic from solid, MIBK, 50° C., read-out: Solubility) was 1800 µg/mL and the solubility ([2]; organic solvent or mixture, thermodynamic from solid, MTBE, 25° C., read-out: Solubility) was 90 µg/mL. For the same molecule, the solubility ([2]; organic solvent or mixture, thermodynamic from solid, MTBE, 50° C., read-out: Solubility) was 410 µg/mL, the solubility ([2]; organic solvent or mixture, thermodynamic from solid, Methanol, 25° C., read-out: Solubility) was 2230 µg/mL and the solubility ([2]; organic solvent or mixture, thermodynamic from solid, Methanol, 50° C., read-out: Solubility) was 3040 µg/mL. For the same molecule, the solubility ([2]; organic solvent or mixture, thermodynamic from solid, Toluene, 50° C., read-out: Solubility) was 30 µg/mL, the solubility ([2]; organic solvent or mixture, thermodynamic from solid, n-Butanol, 25° C., read-out: Solubility) was 790 µg/mL and the solubility ([2]; organic solvent or mixture, thermodynamic from solid, n-Butanol, 50° C., read-out: Solubility) was 2110 µg/mL. For the same molecule, the solubility ([2]; saturated solution in DMF, organic solvent or mixture, thermodynamic from solid, DMF, 25° C., read-out: Solubility) was over 50000 µg/mL, the solubility ([2]; saturated solution in DMF, organic solvent or mixture, thermodynamic from solid, DMF, 50° C., read-out: Solubility) was over 50000 µg/mL and the solubility ([2]; saturated solution in MEK, organic solvent or mixture, thermodynamic from solid, MEK, 25° C., read-out: Solubility) was 1980 µg/mL. For the same molecule, the solubility ([2]; saturated solution in MEK, organic solvent or mixture, thermodynamic from solid, MEK, 50° C., read-out: Solubility) was 4260 µg/mL, the solubility ([2]; saturated solution in THF, organic solvent or mixture, thermodynamic from solid, THF, 25° C., read-out: Solubility) was 11300 µg/mL and the solubility ([2]; saturated solution in THF, organic solvent or mixture, thermodynamic from solid, THF, 50° C., read-out: Solubility) was 32700 µg/mL. The solubility ([2]; saturated solution in acetonitrile, organic solvent or mixture, thermodynamic from solid, Acetonitrile, 25° C., read-out: Solubility) was 240 µg/mL, the solubility ([2]; saturated solution in acetonitrile, organic solvent or mixture, thermodynamic from solid, Acetonitrile, 50° C., read-out: Solubility) was 940 µg/mL and the solubility ([2]; saturated solution in chloroform, organic solvent or mixture, thermodynamic from solid, Chloroform, 25° C., read-out: Solubility) was 170 µg/mL. The solubility ([2]; saturated solution in chloroform, organic solvent or mixture, thermodynamic from solid, Chloroform, 50° C., read-out: Solubility) was 350 µg/mL, the solubility ([2]; saturated solution in dichloromethane, organic solvent or mixture, thermodynamic from solid, Dichloromethane, 25° C., read-out: Solubility) was 70 µg/mL and the solubility ([2]; thermodynamic from solid, Water, 50° C., read-out: Solubility) was 20 µg/mL.

Reference: patent US8507005B2, “Particulates of a CRTH2 antagonist” (Actimis Pharmaceuticals, Inc., priority 2007, dated 2013)
